Results taken from PMC3154276, “The Effect of the Potential PhoQ Histidine Kinase Inhibitors on Shigella flexneri Virulence” (PLoS ONE, 2011).

How the values were obtained:
[1] = Cytotoxicity MTT assay on Vero cells; format: cell-based; settings: African green monkey, highest concentration tested 200 µmol/L, read-out: CC50 on Vero cell
Experimental: The cytotoxicity of each potential PhoQ inhibitor towards a Vero cell line was analyzed by the traditional MTT assay. The CC50 values of all four compounds were higher than 200 µmol/L, the highest tested concentration of potential PhoQ inhibitors. As a control, an equal concentration of DMSO (0.1%) was added to a well of Vero cells, and no obvious cytotoxicity was observed (Table 1).
Cytotoxicity of the potential PhoQ inhibitors on cultured Vero cells was measured by using the Cell Proliferation Kit I (MTT) (Roche, Indianapolis, USA). An equal concentration of DMSO (0.1%) in the medium was used as a negative control. The cytotoxicity assay was performed in triplicate for each potential PhoQ inhibitor, and the assay for each potential PhoQ inhibitor was repeated twice. The results were converted to percentage of the control (cells only containing 0.1% DMSO) and CC50 (concentrations that produce a 50% cytotoxicity effect on Vero cell) of each potential PhoQ inhibitors was calculated using the Origin v7.0 software (OriginLab, Northampton, USA).

SF-PhoQc = molecular target: T1, SF-PhoQc (Shigella flexneri, UniProt Q83RR1); experiment: Pyrophosphate Reagent coupled enzymatic activity assay of SF-PhoQc; format: biochemical, S. flexneri 2a 301; settings: for decrease of SF-PhoQc catalyzed consumption of ATP: Pyrophosphate Reagent
T1 construct: The amplified DNA segment encodes PhoQ HK amino acids 251–486; made in house; host or cells: E. coli JM109
Experimental: The enzymatic activity of SF-PhoQc was determined using the Pyrophosphate Reagent, in which ATP initiates the reaction and ADP generated by ATP is accompanied by the reduction of NADH to NAD^+. The rate of NADH reduction to NAD^+ is detected by a change in absorbance readings at 340 nm. The activity of SF-PhoQc is measured by detecting a decrease in NADH at A340. Recombinant SF-PhoQc (25 µmol/L) was added to initiate the reaction, and the A340 value was recorded by SoftMax vision 4.8 each minute for 30 minutes. The A340 value reduced from 1.47 to 0.65 in the presence of SF-PhoQc (Figure 2).
Figure 2 The activity of recombinant SF-PhoQc. The activity of SF-PhoQc from the Pyrophosphate Reagent was shown. All assays were conducted in a 96-well microplate spectrophotometer. The assay mixture (total volume was 200 µl) contained 25 mmol/L KCl, 2.5 mmol/L MgCl2, 2 mmol/L ATP, 1 mmol/L phosphoendpyruvate, 0.35 mmol/L NADH, 1.5 U/ml PK, 1.25 U/ml LDH and 50 mmol/L Tris-Cl (pH 8.0). Protein SF-PhoQc was added to a final concentration of 25 µmol/L to start the reaction. After SF-PhoQc was added, the A340 value was recorded by SoftMax vision 4.8 every minute for 30 minutes.
The enzymatic activity of SF-PhoQc was measured using both a Pyrophosphate Reagent (Sigma-Aldrich, MO, USA) and a Luminescent Kinase Assay (Promega, WI, USA). The Pyrophosphate Reagent was performed to confirm the inhibitory activities of the effective potential PhoQ inhibitors in the bioinformatics approach. All reactions were carried out in solid black, flat-bottomed 96-well plates. The Pyrophosphate Reagent was performed at 28°C by monitoring the decrease of NADH by a decrease in absorbance readings at 340 nm (ε340 = 6180 M^−1·cm^−1) in the presence of ATP. The final reaction mixture for the Pyrophosphate Reagent contained 25 µmol/L purified SF-PhoQc, 25 mmol/L KCl, 2.5 mmol/L MgCl2, 2 mmol/L ATP, 1 mmol/L phosphoendpyruvate, 0.35 mmol/L NADH, 1.5 U/ml PK, 1.25 U/ml LDH and 50 mmol/L Tris-Cl (pH 8.0). The enzyme activity was determined in the presence of various concentrations of potential PhoQ inhibitors […] to investigate dose-dependent inhibition effects. The A340 value was recorded by SoftMax vision 4.8 every minute, for 30 minutes. The rate of SF-PhoQc enzymatic activity inhibition by a compound was calculated by the following formula: [drawing 1]
Rp (Ratio of Phosphorylation) was defined as the ratio of the decrease activity of SF-PhoQc treated with compound vs the activity of SF-PhoQc treated without compounds. Rp was stand for the percentage of decrease activity of SF-PhoQc.
IC50(the concentration of inhibition of 50%)values of potential PhoQ inhibitors were obtained by fitting the data to a sigmoid dose–response equation using Origin 7.0 software (OriginLab, Northampton, USA).

T1 sequence (Q83RR1 251-486): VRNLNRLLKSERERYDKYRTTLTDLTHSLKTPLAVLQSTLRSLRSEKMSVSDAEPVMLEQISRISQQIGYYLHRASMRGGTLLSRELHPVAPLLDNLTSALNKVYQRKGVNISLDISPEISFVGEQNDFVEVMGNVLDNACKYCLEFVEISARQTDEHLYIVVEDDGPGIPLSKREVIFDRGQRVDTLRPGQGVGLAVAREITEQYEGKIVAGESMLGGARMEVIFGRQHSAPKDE

| Structure (SMILES) | CC50 [1] | IC50 (SF-PhoQc) | decrease of SF-PhoQc catalyzed consumption of ATP (SF-PhoQc) |
| --- | --- | --- | --- |
| O=C(O)c1cc(-c2ccc(-c3ccccc3Cl)o2)nc2ccc3ccccc3c12 [Compound 4] | > 200 µM | 27.8 ± 5.59 µM | 65.8% |
| O=C(O)c1ccc(Cl)c(-c2ccc(/C=N/NC(=O)c3ccc(Br)cc3)o2)c1 [Compound 3] | > 200 µM | 27.8 ± 10.7 µM | 67.1% |
| CCOc1ccccc1-c1cc(C(=O)N/N=C/c2ccc(OCc3ccccc3)c(OC)c2)c2ccccc2n1 [Compound 2] | > 200 µM | 57 ± 1.04 µM | 82.3% |
| O=C(Nc1ccc(C2(c3cccc(NC(=O)c4cccc5ccccc45)c3)c3ccccc3C(=O)c3ccccc32)cc1)c1ccc2ccccc2c1 [Compound 1] | > 200 µM | 12 ± 3.91 µM | 100% |
